Values of other authors as cited in patent US20120263806A1, “Uses of North American Ginseng Fractions for Treating Leukemia” (priority 2007, published 2012).

Key:
[1] = tested on: Adriamycin (ADM)-resistant P388 leukemia cells (P388/ADM)
[2] = tested on: telomerase activity of K562 cells; details: at proper concentrations and exposure time

SMILES	Cytotoxicity of the anti-cancer drugs (DAU, VBL) in P388/ADM cells [1]	also measured
CC(C)=CCC[C@](C)(O)[C@H]1CC[C@]2(C)[C@@H]1[C@H](O)C[C@@H]1[C@@]3(C)CC[C@H](O)C(C)(C)[C@@H]3[C@@H](O)C[C@]12C [20(8) protopanaxatriol]	greatly enhanced	–
O=P1(N(CCCl)CCCl)NCCCO1 (stereo not shown) [CTX, cyclophosphamide]	–	Telomerase activity of K562 cells [2]: completely inhibit
CC(C)=CC/C=C(/C)[C@H]1CC[C@]2(C)[C@@H]1[C@H](O)C[C@@H]1[C@@]3(C)CC[C@H](O)C(C)(C)[C@@H]3[C@@H](O)C[C@]12C [Quasipanaxatriol]	greatly enhanced	Resistance indices (ratios of IC50 values for P388/ADM and P388 parental cells) for DAU and VBL ([1]; 50 μM): decreased significantly
CC(C)=CCC[C@](C)(O)[C@H]1CC[C@]2(C)[C@@H]1[C@H](O)C[C@@H]1[C@@]3(C)CC[C@H](O[C@@H]4O[C@H](CO)[C@@H](O)[C@H](O)[C@H]4O[C@@H]4O[C@H](CO)[C@@H](O)[C@H](O)[C@H]4O)C(C)(C)[C@@H]3CC[C@]12C [Rg(3)]	–	TPA-induced activation of NF-kappaβ in HL-60 cells (NF-kappaβ): inhibited
CC(C)=CCC[C@](C)(O[C@@H]1O[C@H](CO)[C@@H](O)[C@H](O)[C@H]1O)[C@H]1CC[C@]2(C)[C@@H]1[C@H](O)C[C@@H]1[C@@]3(C)CC[C@H](O)C(C)(C)[C@@H]3CC[C@]12C [compound K]	greatly enhanced	–
CC(C)=CCC[C@](C)(O)[C@H]1CC[C@]2(C)[C@@H]1[C@H](O)C[C@@H]1[C@@]3(C)CC[C@H](O[C@@H]4O[C@H](CO)[C@@H](O)[C@H](O)[C@H]4O)C(C)(C)[C@@H]3CC[C@]12C [ginsenoside Rh2]	greatly enhanced	–
